Columns and labels:
[1] = test system: IL-2 stimulated pSTAT5 in Tall-1 T cells; experiment: Cellular JAK3 potency assay: inhibition of IL-2 stimulated pSTAT5 in Tall-1 T cells; format: cell-based, human; details: for Tall-1 (pIC50): IL-2 stimulated pSTAT5, Tall-1 T cells; for IC50: Homo sapiens, TALL-1, IL-2 stimulated pSTAT5 in Tall-1 T cells, read-out: Tall-1 (pIC50) (converted)
Outline: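 Tall-1 human T cells were preincubated with compound for 1 h at 37° C, then stimulated with IL-2 (300 ng/ml final) for 30 min. STAT5 phosphorylation in lysates was read by AlphaLisa bead emission, and IC50 from inhibition curves is given as pIC50 (mean±SD).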

JAK1 = molecular target: T1, JAK1 (Homo sapiens, UniProt P23458); experiment: Biochemical JAK1 kinase assay (LanthaScreen); details: for Ki: read-out: JAK 1 (pKi) (converted)
T1 construct: GST; purchased Life Technologies
Outline: (§1)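 Recombinant GST-tagged JAK enzymes with GFP-STAT1 peptide substrate in 50 mM HEPES pH 7.5, 10 mM MgCl2, 1 mM EGTA, 0.01% Brij-35; compounds pre-incubated 1 h, then ATP added, 1 h reaction at ambient temperature. TR-FRET (Tb-anti-pSTAT1 pTyr701, 520/495 nm) after EDTA stop; IC50 by 4-parameter fit, converted to pKi via Cheng-Prusoff.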

JAK2 = molecular target: T2, JAK2 (Homo sapiens, UniProt O60674); experiment: Biochemical JAK2 kinase assay (LanthaScreen); details: for Ki: read-out: JAK 2 (pKi) (converted)
T2 construct: GST; purchased Life Technologies
Outline: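 pKi values derive from pIC50 via Cheng-Prusoff, with IC50 from a 4-parameter fit of percent-inhibition TR-FRET data using Tb-anti-pSTAT1 (pTyr701) detection. Compound, GST-JAK2 and GFP-STAT1 substrate were pre-incubated 1 h, then ATP started a 1 h ambient reaction (HEPES pH 7.5, 10 mM MgCl2, 1% DMSO).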

Tyk2 = molecular target: T3, Tyk2 (Homo sapiens, UniProt P29597); experiment: Biochemical Tyk2 kinase assay (LanthaScreen); details: for Ki: read-out: Tyk 2 (pKi) (converted)
T3 construct: GST; purchased Life Technologies
Outline: as §1

JAK3 = molecular target: T4, JAK3 (Homo sapiens, UniProt P52333); experiment: Biochemical JAK3 kinase assay (LanthaScreen); parameters: GST; purchased Life Technologies; details: for Ki: read-out: JAK 3 (pKi) (converted)
T4 sequence (P52333 1-1124): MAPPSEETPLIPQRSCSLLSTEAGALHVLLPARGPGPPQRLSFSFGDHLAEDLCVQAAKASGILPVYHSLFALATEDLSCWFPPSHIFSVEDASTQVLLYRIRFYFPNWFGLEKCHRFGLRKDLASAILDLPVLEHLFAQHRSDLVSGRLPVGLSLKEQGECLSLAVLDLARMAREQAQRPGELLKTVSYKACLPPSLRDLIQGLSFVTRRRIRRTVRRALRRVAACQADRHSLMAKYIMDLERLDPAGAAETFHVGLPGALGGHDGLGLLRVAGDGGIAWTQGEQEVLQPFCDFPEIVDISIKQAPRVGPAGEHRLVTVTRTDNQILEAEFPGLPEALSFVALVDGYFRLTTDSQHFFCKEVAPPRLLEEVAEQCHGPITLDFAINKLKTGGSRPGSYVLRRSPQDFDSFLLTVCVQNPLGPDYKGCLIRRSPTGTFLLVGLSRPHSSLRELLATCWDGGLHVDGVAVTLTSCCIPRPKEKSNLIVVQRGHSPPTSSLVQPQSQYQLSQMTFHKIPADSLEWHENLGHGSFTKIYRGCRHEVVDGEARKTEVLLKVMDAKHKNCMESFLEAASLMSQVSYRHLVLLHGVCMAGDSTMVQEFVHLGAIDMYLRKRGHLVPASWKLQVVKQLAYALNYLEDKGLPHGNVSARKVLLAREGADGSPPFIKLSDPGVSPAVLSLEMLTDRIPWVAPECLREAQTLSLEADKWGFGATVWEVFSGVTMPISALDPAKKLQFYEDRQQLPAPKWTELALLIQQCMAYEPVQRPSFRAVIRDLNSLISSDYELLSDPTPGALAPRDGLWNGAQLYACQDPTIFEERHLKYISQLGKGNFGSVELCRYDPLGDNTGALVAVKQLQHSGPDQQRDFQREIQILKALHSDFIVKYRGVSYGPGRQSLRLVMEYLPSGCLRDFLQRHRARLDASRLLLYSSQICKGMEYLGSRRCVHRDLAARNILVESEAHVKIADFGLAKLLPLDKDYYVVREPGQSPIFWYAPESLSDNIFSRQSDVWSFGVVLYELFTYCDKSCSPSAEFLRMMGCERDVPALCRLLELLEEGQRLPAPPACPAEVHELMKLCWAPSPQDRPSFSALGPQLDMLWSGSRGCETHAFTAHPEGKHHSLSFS
Outline: as §1

[2] = selectivity JAK3 over JAK1, difference of pKi
[3] = selectivity: difference of pKi JAK3 and pKi JAK1

T1 sequence (P23458 whole entry): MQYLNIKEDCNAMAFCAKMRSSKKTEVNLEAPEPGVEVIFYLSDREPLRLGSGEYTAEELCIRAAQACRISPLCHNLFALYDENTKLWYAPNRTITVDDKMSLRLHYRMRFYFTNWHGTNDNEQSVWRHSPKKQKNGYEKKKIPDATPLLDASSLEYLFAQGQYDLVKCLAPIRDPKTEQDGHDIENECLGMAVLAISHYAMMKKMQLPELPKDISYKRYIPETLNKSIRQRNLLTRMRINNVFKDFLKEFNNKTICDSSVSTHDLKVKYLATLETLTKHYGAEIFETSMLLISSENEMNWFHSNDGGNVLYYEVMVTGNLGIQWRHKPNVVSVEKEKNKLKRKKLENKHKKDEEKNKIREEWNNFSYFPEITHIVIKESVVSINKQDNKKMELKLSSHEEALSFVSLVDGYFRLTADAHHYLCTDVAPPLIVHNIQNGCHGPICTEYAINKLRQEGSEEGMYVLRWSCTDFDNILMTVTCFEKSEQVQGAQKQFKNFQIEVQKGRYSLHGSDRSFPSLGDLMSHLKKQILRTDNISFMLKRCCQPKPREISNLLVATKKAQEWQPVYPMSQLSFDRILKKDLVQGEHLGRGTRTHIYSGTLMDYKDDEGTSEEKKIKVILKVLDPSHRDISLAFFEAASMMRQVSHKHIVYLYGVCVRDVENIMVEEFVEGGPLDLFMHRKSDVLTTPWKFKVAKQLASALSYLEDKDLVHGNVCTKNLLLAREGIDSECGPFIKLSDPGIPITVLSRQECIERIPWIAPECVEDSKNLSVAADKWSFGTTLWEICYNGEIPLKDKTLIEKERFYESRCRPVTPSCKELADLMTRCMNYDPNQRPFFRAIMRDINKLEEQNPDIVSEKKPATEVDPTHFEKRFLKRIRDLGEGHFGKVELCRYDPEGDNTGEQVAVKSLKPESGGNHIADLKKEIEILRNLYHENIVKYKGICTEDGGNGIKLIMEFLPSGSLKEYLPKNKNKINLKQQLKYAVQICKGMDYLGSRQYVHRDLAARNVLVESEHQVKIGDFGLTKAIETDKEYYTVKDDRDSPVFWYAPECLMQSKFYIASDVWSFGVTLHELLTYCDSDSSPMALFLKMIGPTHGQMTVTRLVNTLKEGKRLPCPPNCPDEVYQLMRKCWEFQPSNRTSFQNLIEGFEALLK
T3 sequence (P29597 whole entry): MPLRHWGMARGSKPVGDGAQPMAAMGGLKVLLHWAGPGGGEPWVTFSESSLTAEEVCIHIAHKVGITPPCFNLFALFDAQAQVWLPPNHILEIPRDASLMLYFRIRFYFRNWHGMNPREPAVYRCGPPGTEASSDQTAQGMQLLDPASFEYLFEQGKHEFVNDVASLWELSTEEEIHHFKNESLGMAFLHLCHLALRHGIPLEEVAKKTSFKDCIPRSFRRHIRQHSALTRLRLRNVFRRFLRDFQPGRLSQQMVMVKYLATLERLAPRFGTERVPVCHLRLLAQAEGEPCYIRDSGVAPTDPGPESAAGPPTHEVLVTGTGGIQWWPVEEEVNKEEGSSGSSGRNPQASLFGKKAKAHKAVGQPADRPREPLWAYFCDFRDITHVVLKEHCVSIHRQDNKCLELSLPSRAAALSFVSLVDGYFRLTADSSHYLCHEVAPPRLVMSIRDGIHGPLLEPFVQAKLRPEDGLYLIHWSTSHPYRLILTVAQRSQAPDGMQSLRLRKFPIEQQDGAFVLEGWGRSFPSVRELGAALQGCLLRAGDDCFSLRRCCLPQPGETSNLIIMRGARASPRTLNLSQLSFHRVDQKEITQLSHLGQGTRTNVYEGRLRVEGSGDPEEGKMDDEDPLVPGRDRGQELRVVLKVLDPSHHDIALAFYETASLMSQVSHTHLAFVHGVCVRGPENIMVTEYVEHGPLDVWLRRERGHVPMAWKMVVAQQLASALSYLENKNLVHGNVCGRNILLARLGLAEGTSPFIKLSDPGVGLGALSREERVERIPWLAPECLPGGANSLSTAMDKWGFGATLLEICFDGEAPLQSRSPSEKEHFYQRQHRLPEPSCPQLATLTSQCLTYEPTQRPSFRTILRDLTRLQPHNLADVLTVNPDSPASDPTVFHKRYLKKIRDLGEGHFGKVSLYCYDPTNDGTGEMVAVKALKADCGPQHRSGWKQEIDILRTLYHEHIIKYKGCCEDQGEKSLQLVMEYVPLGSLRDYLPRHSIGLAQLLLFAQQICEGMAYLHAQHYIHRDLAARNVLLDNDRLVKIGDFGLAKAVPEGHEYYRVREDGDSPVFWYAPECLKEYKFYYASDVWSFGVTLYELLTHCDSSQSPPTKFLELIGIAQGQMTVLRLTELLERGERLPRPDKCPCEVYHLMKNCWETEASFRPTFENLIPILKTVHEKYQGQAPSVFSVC
T2 sequence (O60674 whole entry): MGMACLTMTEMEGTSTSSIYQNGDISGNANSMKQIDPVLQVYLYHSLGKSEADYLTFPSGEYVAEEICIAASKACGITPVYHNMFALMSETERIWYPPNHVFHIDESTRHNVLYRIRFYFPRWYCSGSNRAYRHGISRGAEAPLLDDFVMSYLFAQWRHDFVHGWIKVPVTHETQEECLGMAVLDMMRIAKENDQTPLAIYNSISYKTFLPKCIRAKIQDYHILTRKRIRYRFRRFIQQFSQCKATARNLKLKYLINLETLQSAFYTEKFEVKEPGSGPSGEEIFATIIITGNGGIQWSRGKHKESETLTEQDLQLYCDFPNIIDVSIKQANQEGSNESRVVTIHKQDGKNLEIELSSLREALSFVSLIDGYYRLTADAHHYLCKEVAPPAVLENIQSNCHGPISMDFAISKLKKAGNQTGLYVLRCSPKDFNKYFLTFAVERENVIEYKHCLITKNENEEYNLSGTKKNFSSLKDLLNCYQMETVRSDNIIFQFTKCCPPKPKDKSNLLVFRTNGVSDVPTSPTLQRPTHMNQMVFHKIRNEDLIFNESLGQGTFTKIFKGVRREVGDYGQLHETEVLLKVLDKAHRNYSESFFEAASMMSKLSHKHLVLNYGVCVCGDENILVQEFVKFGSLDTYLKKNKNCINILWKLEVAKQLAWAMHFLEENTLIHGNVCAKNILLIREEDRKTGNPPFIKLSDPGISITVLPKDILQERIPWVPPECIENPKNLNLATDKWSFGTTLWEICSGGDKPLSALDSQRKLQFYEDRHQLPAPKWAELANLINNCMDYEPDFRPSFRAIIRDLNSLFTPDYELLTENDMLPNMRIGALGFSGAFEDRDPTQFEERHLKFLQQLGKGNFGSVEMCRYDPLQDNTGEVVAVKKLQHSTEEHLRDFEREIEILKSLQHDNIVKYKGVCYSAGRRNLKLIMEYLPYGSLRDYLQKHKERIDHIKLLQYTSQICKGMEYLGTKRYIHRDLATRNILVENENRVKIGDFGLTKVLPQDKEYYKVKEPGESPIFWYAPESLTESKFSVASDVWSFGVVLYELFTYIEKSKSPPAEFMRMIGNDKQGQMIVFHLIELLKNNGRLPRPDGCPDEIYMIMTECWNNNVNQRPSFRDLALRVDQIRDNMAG

Row | Compound | Tall-1 (pIC50) [1] | JAK 1 (pKi) (JAK1) | JAK 2 (pKi) (JAK2) | Tyk 2 (pKi) (Tyk2) | JAK 3 (pKi) (JAK3) | JAK3 (pKi)-JAK1 (pKi) (JAK3; [2]) | IC50 [1] [nM] | Ki (JAK1) [nM] | Ki (JAK2) [nM] | Ki (Tyk2) [nM] | Ki (JAK3) [nM] | JAK3 (pKi)-JAK1 (pKi) (JAK3; [3])
1 | C=CC(=O)N1CCO[C@@H](C(=O)Nc2cc(-c3ccc(O)cc3)nc3[nH]ncc23)C1 [Compound 13-19] | B (a pIC50 value between 6.7 (included) and 7.5 (IC50 between 200 nM and 32 nM)) | E (a pKi value of 7 or below (Ki of 100 nM or above)) | E (a pKi value of 7 or below (Ki of 100 nM or above)) | E (a pKi value of 7 or below (Ki of 100 nM or above)) | A (a pKi value≥10 (Ki≤0.1 nM)) | A (a value of 3 or above) |  |  |  |  |  | 
2 | C=CC(=O)N1CCO[C@@H](C(=O)Nc2nc(-c3ccc(O)c(Cl)c3)cc3[nH]ncc23)C1 [Compound 13-20] | B (a pIC50 value between 6.7 (included) and 7.5 (IC50 between 200 nM and 32 nM)) | E (a pKi value of 7 or below (Ki of 100 nM or above)) | E (a pKi value of 7 or below (Ki of 100 nM or above)) | E (a pKi value of 7 or below (Ki of 100 nM or above)) | B (a pKi value between 9 and 10 (Ki between 1 nM and 0.1 nM)) | B (a value of 2.3 to 3) |  |  |  |  |  | 
3 | C=CC(=O)N1CCO[C@@H](C(=O)Nc2nc(-c3ccc(O)c(F)c3)cc3[nH]ncc23)C1 [Compound 13-21] | A (a pIC50 value≥7.5 (IC50≤32 nM)) | E (a pKi value of 7 or below (Ki of 100 nM or above)) | D (a pKi value between 7 and 8 (Ki between 100 nM and 10 nM)) | E (a pKi value of 7 or below (Ki of 100 nM or above)) | B (a pKi value between 9 and 10 (Ki between 1 nM and 0.1 nM)) | B (a value of 2.3 to 3) |  |  |  |  |  | 
4 | C=CC(=O)N1CCO[C@@H](C(=O)Nc2cc(-c3ccc(O)c(Cl)c3)nc3[nH]ncc23)C1 [Compound 13-22] | B (a pIC50 value between 6.7 (included) and 7.5 (IC50 between 200 nM and 32 nM)) | E (a pKi value of 7 or below (Ki of 100 nM or above)) | E (a pKi value of 7 or below (Ki of 100 nM or above)) | E (a pKi value of 7 or below (Ki of 100 nM or above)) | B (a pKi value between 9 and 10 (Ki between 1 nM and 0.1 nM)) | A (a value of 3 or above) |  |  |  |  |  | 
5 | C=CC(=O)N1CC[C@H](S(=O)(=O)c2cc(-c3ccc(O)cc3)cc3[nH]ncc23)C1 [Compound 13] |  |  |  |  |  |  | 31.6 to 200 | > 100 | > 100 | > 100 | < 0.1 | A (a value of 3 or above)
6 | C=CC(=O)N1CCC(Cc2cc(-c3ccc(O)cc3)cc3[nH]ncc23)CC1 [Compound 14, 1-(4-((6-(4-hydroxyphenyl)-1H-indazol-4-yl)methyl)piperidin-1-yl)prop-2-en-1-one] |  |  |  |  |  |  | 31.6 to 200 | > 100 | > 100 | > 100 | 0.1 to 1 | A (a value of 3 or above)
7 | C=CC(=O)N1CCC(COc2cc(-c3ccc(O)c(Cl)c3)cc3[nH]ncc23)CC1 [Compound 14-1] | A (a pIC50 value≥7.5 (IC50≤32 nM)) | E (a pKi value of 7 or below (Ki of 100 nM or above)) | E (a pKi value of 7 or below (Ki of 100 nM or above)) | E (a pKi value of 7 or below (Ki of 100 nM or above)) | B (a pKi value between 9 and 10 (Ki between 1 nM and 0.1 nM)) | A (a value of 3 or above) |  |  |  |  |  | 
8 | C=CC(=O)N1CCC(COc2cc(-c3ccc(O)cc3)nc3[nH]ncc23)CC1 [Compound 14-2] | B (a pIC50 value between 6.7 (included) and 7.5 (IC50 between 200 nM and 32 nM)) | E (a pKi value of 7 or below (Ki of 100 nM or above)) | E (a pKi value of 7 or below (Ki of 100 nM or above)) | E (a pKi value of 7 or below (Ki of 100 nM or above)) | A (a pKi value≥10 (Ki≤0.1 nM)) | A (a value of 3 or above) |  |  |  |  |  | 
9 | C=CC(=O)N1CCC(COc2cc(-c3ccc(O)c(F)c3)nc3[nH]ncc23)CC1 [Compound 14-9] | B (a pIC50 value between 6.7 (included) and 7.5 (IC50 between 200 nM and 32 nM)) | E (a pKi value of 7 or below (Ki of 100 nM or above)) | E (a pKi value of 7 or below (Ki of 100 nM or above)) | E (a pKi value of 7 or below (Ki of 100 nM or above)) | B (a pKi value between 9 and 10 (Ki between 1 nM and 0.1 nM)) | A (a value of 3 or above) |  |  |  |  |  | 
10 | C=CC(=O)N1CCC(COc2nc(-c3ccc(O)cc3)nc3[nH]ncc23)CC1 [Compound 14-12] | C (a pIC50 value between 6 and 6.7 (IC50 between 1 μM and 200 nM)) | E (a pKi value of 7 or below (Ki of 100 nM or above)) | E (a pKi value of 7 or below (Ki of 100 nM or above)) | E (a pKi value of 7 or below (Ki of 100 nM or above)) | B (a pKi value between 9 and 10 (Ki between 1 nM and 0.1 nM)) | A (a value of 3 or above) |  |  |  |  |  | 
11 | C=CC(=O)N1CC2(CC(Oc3cc(-c4ccc(O)c(F)c4)cc4[nH]ncc34)C2)C1 [Compound 15-2] | A (a pIC50 value≥7.5 (IC50≤32 nM)) | D (a pKi value between 7 and 8 (Ki between 100 nM and 10 nM)) | D (a pKi value between 7 and 8 (Ki between 100 nM and 10 nM)) | E (a pKi value of 7 or below (Ki of 100 nM or above)) | A (a pKi value≥10 (Ki≤0.1 nM)) | B (a value of 2.3 to 3) |  |  |  |  |  | 
12 | CN(C)C/C=C/C(=O)N1CC2(CC(Oc3cc(-c4ccc(O)c(F)c4)cc4[nH]ncc34)C2)C1 [Compound 15-5] | B (a pIC50 value between 6.7 (included) and 7.5 (IC50 between 200 nM and 32 nM)) | D (a pKi value between 7 and 8 (Ki between 100 nM and 10 nM)) | D (a pKi value between 7 and 8 (Ki between 100 nM and 10 nM)) | E (a pKi value of 7 or below (Ki of 100 nM or above)) | B (a pKi value between 9 and 10 (Ki between 1 nM and 0.1 nM)) | B (a value of 2.3 to 3) |  |  |  |  |  | 
13 | C=CC(=O)N1CC2(CC(Oc3nc(-c4ccc(O)cc4)cc4[nH]ncc34)C2)C1 [Compound 15-7] | A (a pIC50 value≥7.5 (IC50≤32 nM)) | E (a pKi value of 7 or below (Ki of 100 nM or above)) | D (a pKi value between 7 and 8 (Ki between 100 nM and 10 nM)) | E (a pKi value of 7 or below (Ki of 100 nM or above)) | B (a pKi value between 9 and 10 (Ki between 1 nM and 0.1 nM)) | B (a value of 2.3 to 3) |  |  |  |  |  | 
14 | C=CC(=O)N1CC2(CC(Oc3nc(-c4ccc(O)c(Cl)c4)nc4[nH]ncc34)C2)C1 [Compound 15-9] | B (a pIC50 value between 6.7 (included) and 7.5 (IC50 between 200 nM and 32 nM)) | E (a pKi value of 7 or below (Ki of 100 nM or above)) | E (a pKi value of 7 or below (Ki of 100 nM or above)) | E (a pKi value of 7 or below (Ki of 100 nM or above)) | A (a pKi value≥10 (Ki≤0.1 nM)) | A (a value of 3 or above) |  |  |  |  |  | 
